Structures are written as SMILES.

The test system of series [1] is osteoblasts derived from the parietal bone of rat fetus. In words: Enhancing activity for the induction of alkaline phosphatase production in osteoblasts. As to conditions: test compound 2.5 μg/ml; compared with activity without the test compound; rat fetal parietal bone osteoblasts. The format is cell-based. The protocol:
The compounds of the present invention were determined for an enhancing activity for the induction of alkaline phosphatase production in osteoblasts derived from the parietal bone of rat fetus. Enhancing activities for the induction of alkaline phosphatase production at a concentration of the test compound of 2.5 μg/ml were 195% for Example 1, 155% for Example 3, 187% for Example 7 and 134% for Example 9, respectively, when compared with those activities without the test compounds.

The test system is the same in series [2]. The experiment in a line: Enhancing activity for the nodule induction in osteoblasts. The format is cell-based. As to conditions: rat fetal parietal bone osteoblasts. The protocol: The compounds of the invention were determined for an enhancing activity for the nodule induction in osteoblasts derived from the parietal bone of rat fetus. Results were 342% at 1.0 μg/ml for Example 1, 501% at 2.5 μg/ml for Example 3, 576% at 2.5 μg/ml for Example 7 and 550% at 2.5 μg/ml for Example 9, respectively.

As for `CSc1sc(C(N)=O)c(C)c1-c1oncc1C` [Example 1, 3,4′-Dimethyl-4-(isoxazol-5-yl)-5-(methylthio)thiophene-2-carboxamide], the “Enhancing activity for the induction of alkaline phosphatase production” value (“Enhancing activity for the induction” below) in series [1] was determined as 195%. For the same molecule, the “Enhancing activity for the nodule induction” value in series [2] (at 1.0 μg/ml) was 342%.

Turning to `CSc1sc(C(N)=O)c(C)c1-c1oncc1C(C)C` [Example 9], in series [1], the “Enhancing activity for the induction” value was found to be 134%. In series [2] (at 2.5 μg/ml), the “Enhancing activity for the nodule induction” value is recorded as 550%.

Consider `CCc1c(C(N)=O)sc(SC)c1-c1oncc1C` [Example 3, 3-Ethyl-4-(4-methylisoxazol-5-yl)-5-(methylthio)thiophene-2-carboxamide], for which the melting point (as a rule, the temperature of the solid-liquid transition) is 93.5 to 94.5 °C. Also, the “Enhancing activity for the induction” value in series [1] is given as 155%. Further, the “Enhancing activity for the nodule induction” value in series [2] (at 2.5 μg/ml) amounted to 501%.

Take `CCc1cnoc1-c1c(SC)sc(C(N)=O)c1C` [Example 7, 4-(4-Etkylisoxazol-5-yl)-3-methyl-5-(methylthio)-thiophene-2-carboxamide]: the “Enhancing activity for the induction” value in series [1] is on record as 187%. Besides, the “Enhancing activity for the nodule induction” value in series [2] (at 2.5 μg/ml) was 576%.

Source of the values: patent US6355663B1, “Substituted isoxazolylthiophene compounds” (Taisho Pharmaceutical Co., Ltd., priority 1998, dated 2002).
